Source: ChEMBL document CHEMBL4265965, “Dichloroacetophenones targeting at pyruvate dehydrogenase kinase 1 with improved selectivity and antiproliferative activity: Synthesis and structure-activity relationships” (Bioorg Med Chem Lett, 2018)
Calls of active or inactive are those of the source. No cut-off for these calls is given here.

How the values were obtained:
[1] = target: Epidermal growth factor receptor (Homo sapiens, UniProt P00533); assay: Inhibition of EGFR phosphorylation in human NCI-H1975 cells at 10 uM after 24 hrs by Western blot analysis; type: cell-based; details: nci-h1975, 24 h
Chain of Epidermal growth factor receptor (P00533 whole entry): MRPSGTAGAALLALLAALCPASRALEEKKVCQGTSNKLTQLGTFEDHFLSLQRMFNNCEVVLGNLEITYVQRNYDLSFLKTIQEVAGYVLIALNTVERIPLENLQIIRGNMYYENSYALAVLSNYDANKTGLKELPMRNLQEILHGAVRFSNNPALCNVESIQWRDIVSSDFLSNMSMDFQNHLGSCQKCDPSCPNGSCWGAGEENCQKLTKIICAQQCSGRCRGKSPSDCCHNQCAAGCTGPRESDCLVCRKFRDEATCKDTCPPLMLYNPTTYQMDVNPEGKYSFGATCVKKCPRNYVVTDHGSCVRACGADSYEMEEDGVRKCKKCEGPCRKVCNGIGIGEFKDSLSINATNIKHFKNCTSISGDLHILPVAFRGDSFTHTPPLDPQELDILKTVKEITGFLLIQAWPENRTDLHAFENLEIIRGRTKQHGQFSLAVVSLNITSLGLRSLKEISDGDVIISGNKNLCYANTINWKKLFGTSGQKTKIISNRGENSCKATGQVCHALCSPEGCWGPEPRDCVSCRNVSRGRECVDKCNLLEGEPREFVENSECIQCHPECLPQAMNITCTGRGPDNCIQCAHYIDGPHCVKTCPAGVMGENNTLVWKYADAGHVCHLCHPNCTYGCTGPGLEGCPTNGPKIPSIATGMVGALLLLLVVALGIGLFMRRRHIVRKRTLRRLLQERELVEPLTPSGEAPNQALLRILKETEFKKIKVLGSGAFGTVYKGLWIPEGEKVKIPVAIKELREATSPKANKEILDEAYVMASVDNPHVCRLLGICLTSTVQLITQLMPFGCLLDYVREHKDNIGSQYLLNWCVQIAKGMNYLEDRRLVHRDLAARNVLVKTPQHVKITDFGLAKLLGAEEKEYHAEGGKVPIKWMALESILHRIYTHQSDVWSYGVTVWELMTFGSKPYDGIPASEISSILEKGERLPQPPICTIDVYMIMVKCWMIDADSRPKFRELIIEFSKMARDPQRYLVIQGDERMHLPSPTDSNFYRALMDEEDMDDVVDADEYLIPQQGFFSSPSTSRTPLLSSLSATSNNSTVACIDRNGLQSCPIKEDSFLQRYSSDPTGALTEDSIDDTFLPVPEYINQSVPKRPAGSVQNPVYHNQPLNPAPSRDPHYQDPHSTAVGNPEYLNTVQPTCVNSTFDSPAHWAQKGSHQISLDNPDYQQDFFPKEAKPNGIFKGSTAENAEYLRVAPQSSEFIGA

[2] = Inhibition of ERK phosphorylation in human NCI-H1975 cells at 10 uM after 24 hrs by Western blot analysis; type: cell-based; details: nci-h1975, 24 h
A549 [3] = assay: Antiproliferative activity against human A549 cells assessed as inhibition of cell proliferation at 6 uM after 72 hrs by MTT assay relative to control; type: functional; details: A549, 72 h
NCI-H1650 [4] = assay: Antiproliferative activity against human NCI-H1650 cells assessed as inhibition of cell proliferation at 2 uM after 72 hrs by MTT assay relative to control; type: functional; details: NCI-H1650, 72 h
[5] = target: T1, [Pyruvate dehydrogenase (acetyl-transferring)] kinase isozyme 1, mitochondrial (Homo sapiens, UniProt Q15118); assay: Binding affinity to recombinant human N-terminal His6/Sumo-tagged PDK1 (29 to 436 residues) expressed in Escherichia coli BL21
T1 sequence (Q15118 whole entry, the tested form may be a part): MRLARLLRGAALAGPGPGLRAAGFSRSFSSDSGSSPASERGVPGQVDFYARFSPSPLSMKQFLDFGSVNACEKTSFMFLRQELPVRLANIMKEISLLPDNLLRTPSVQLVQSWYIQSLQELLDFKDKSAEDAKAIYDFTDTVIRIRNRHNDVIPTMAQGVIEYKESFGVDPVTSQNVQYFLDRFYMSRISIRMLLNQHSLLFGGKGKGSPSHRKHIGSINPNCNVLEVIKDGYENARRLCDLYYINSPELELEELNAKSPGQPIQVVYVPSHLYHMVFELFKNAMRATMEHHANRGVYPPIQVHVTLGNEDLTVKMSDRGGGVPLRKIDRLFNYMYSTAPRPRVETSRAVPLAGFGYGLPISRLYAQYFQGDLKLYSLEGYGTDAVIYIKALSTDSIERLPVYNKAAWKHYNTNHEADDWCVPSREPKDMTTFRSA

[6] = target: T1, [Pyruvate dehydrogenase (acetyl-transferring)] kinase isozyme 1, mitochondrial; assay: Inhibition of PDK1 in human NCI-H1975 cells assessed as switch of pyruvate metabolism from lactate production to oxidative phosphorylation by measuring decrease in extracellular acidification rate at 10 uM pretreated for 4 hrs followed by glucose addition for 1 hr measured for 16 mins; type: cell-based
[7] = target: T1, [Pyruvate dehydrogenase (acetyl-transferring)] kinase isozyme 1, mitochondrial; assay: Inhibition of PDK1 in human NCI-H1975 cells assessed as switch of pyruvate metabolism from lactate production to oxidative phosphorylation by measuring decrease in extracellular acidification rate at 10 uM pretreated for 4 hrs followed by oligomycin addition for 1 hr measured for 16 mins; type: cell-based
[8] = target: T1, [Pyruvate dehydrogenase (acetyl-transferring)] kinase isozyme 1, mitochondrial; assay: Inhibition of PDK1 in human NCI-H1975 cells assessed as switch of pyruvate metabolism from lactate production to oxidative phosphorylation by measuring increase in basal oxygen consumption rate at 10 uM incubated for 4 hrs followed by antimycinA addition for 1 hr measured for 16 mins; type: cell-based
NCI-H1650 [9] = assay: Antiproliferative activity against human NCI-H1650 cells assessed as inhibition of cell proliferation at 12 uM after 72 hrs by MTT assay relative to control; type: functional; details: NCI-H1650, 72 h
[10] = target: T1, [Pyruvate dehydrogenase (acetyl-transferring)] kinase isozyme 1, mitochondrial; assay: Inhibition of recombinant human N-terminal His6/Sumo-tagged PDK1 (29 to 436 residues) expressed in Escherichia coli BL21 at 1 uM by kinase-glo luminescence assay relative to control
A549 [11] = assay: Antiproliferative activity against human A549 cells assessed as inhibition of cell proliferation at 2 uM after 72 hrs by MTT assay relative to control; type: functional; details: A549, 72 h
[12] = target: RAC-alpha serine/threonine-protein kinase (Homo sapiens, UniProt P31749); assay: Inhibition of AKT phosphorylation in human NCI-H1975 cells at 10 uM after 24 hrs by Western blot analysis; type: cell-based; details: nci-h1975, 24 h
Chain of RAC-alpha serine/threonine-protein kinase (P31749 whole entry): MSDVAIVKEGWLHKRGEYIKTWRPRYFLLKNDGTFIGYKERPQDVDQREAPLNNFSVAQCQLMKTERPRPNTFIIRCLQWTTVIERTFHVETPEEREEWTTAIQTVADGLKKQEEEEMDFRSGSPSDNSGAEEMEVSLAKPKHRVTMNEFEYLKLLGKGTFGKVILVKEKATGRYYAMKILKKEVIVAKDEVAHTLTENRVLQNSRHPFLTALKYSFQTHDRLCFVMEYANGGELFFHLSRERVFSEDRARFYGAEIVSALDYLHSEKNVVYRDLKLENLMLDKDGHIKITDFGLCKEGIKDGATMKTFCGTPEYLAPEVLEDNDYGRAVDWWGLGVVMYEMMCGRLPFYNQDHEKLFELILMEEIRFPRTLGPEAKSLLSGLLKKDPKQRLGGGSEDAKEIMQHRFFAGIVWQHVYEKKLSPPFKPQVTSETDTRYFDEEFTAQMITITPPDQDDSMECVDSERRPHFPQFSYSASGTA

[13] = target: T1, [Pyruvate dehydrogenase (acetyl-transferring)] kinase isozyme 1, mitochondrial; assay: Inhibition of PDK1 in human NCI-H1975 cells assessed as switch of pyruvate metabolism from lactate production to oxidative phosphorylation by measuring increase in basal oxygen consumption rate at 10 uM incubated for 4 hrs followed by oligomycin addition for 1 hr measured for 16 mins; type: cell-based
NCI-H1975 [14] = assay: Antiproliferative activity against human NCI-H1975 cells assessed as inhibition of cell proliferation after 72 hrs by MTT assay; type: functional, cell-based; details: NCI-H1975, 72 h
NCI-H1975 [15] = assay: Antiproliferative activity against human NCI-H1975 cells assessed as inhibition of cell proliferation at 6 uM after 72 hrs by MTT assay relative to control; type: functional; details: NCI-H1975, 72 h
[16] = target: T1, [Pyruvate dehydrogenase (acetyl-transferring)] kinase isozyme 1, mitochondrial; assay: Inhibition of PDK1 in human NCI-H1975 cells assessed as switch of pyruvate metabolism from lactate production to oxidative phosphorylation by measuring increase in basal oxygen consumption rate at 10 uM incubated for 4 hrs followed by FCCP addition for 1 hr measured for 16 mins; type: cell-based
[17] = target: T1, [Pyruvate dehydrogenase (acetyl-transferring)] kinase isozyme 1, mitochondrial; assay: Inhibition of PDK1 in human NCI-H1975 cells assessed as switch of pyruvate metabolism from lactate production to oxidative phosphorylation by measuring decrease in extracellular acidification rate at 10 uM pretreated for 4 hrs followed by 2DG addition for 1 hr measured for 16 mins; type: cell-based
A549 [18] = assay: Antiproliferative activity against human A549 cells assessed as inhibition of cell proliferation at 12 uM after 72 hrs by MTT assay relative to control; type: functional; details: A549, 72 h
NCI-H1975 [19] = assay: Antiproliferative activity against human NCI-H1975 cells assessed as inhibition of cell proliferation at 12 uM after 72 hrs by MTT assay relative to control; type: functional; details: NCI-H1975, 72 h
[20] = target: T1, [Pyruvate dehydrogenase (acetyl-transferring)] kinase isozyme 1, mitochondrial; assay: Inhibition of PDK1 in human NCI-H1975 cells assessed as switch of pyruvate metabolism from lactate production to oxidative phosphorylation by measuring increase in basal oxygen consumption rate at 10 uM incubated for 4 hrs measured for 16 mins; type: cell-based
NCI-H1650 [21] = assay: Antiproliferative activity against human NCI-H1650 cells assessed as inhibition of cell proliferation at 6 uM after 72 hrs by MTT assay relative to control; type: functional; details: NCI-H1650, 72 h
NCI-H1975 [22] = assay: Antiproliferative activity against human NCI-H1975 cells assessed as inhibition of cell proliferation at 2 uM after 72 hrs by MTT assay relative to control; type: functional; details: NCI-H1975, 72 h
Sus scrofa [23] = species: Sus scrofa; assay: Inhibition of porcine PDK1 assessed as activation of pyruvate dehydrogenase complex at 1 uM measured after 3 mins
[24] = target: T1, [Pyruvate dehydrogenase (acetyl-transferring)] kinase isozyme 1, mitochondrial; assay: Inhibition of PDK1 in human NCI-H1975 cells assessed as switch of pyruvate metabolism from lactate production to oxidative phosphorylation by measuring increase in maximum respiration at 5 uM incubated for 4 hrs followed by FCCP addition for 1 hr measured for 16 mins; type: cell-based
[25] = target: T1, [Pyruvate dehydrogenase (acetyl-transferring)] kinase isozyme 1, mitochondrial; assay: Inhibition of PDK1 in human NCI-H1975 cells assessed as switch of pyruvate metabolism from lactate production to oxidative phosphorylation by measuring increase in ATP production at 5 uM incubated for 4 hrs followed by oligomycin addition for 1 hr measured for 16 mins; type: cell-based
[26] = target: T1, [Pyruvate dehydrogenase (acetyl-transferring)] kinase isozyme 1, mitochondrial; assay: Inhibition of PDK1 in human NCI-H1975 cells assessed as switch of pyruvate metabolism from lactate production to oxidative phosphorylation by measuring increase in basal oxygen consumption rate at 2.5 to 5 uM incubated for 4 hrs measured for 16 mins; type: cell-based
[27] = target: T1, [Pyruvate dehydrogenase (acetyl-transferring)] kinase isozyme 1, mitochondrial; assay: Inhibition of PDK1 in human NCI-H1975 cells assessed as switch of pyruvate metabolism from lactate production to oxidative phosphorylation by measuring increase in proton leak at 5 uM incubated for 4 hrs followed by oligomycin addition for 1 hr measured for 16 mins; type: cell-based
[28] = target: T1, [Pyruvate dehydrogenase (acetyl-transferring)] kinase isozyme 1, mitochondrial; assay: Inhibition of PDK1 in human NCI-H1975 cells assessed as switch of pyruvate metabolism from lactate production to oxidative phosphorylation by measuring decrease in extracellular acidification rate at 20 uM pretreated for 4 hrs followed by 2DG addition for 1 hr measured for 16 mins; type: cell-based
[29] = target: T1, [Pyruvate dehydrogenase (acetyl-transferring)] kinase isozyme 1, mitochondrial; assay: Inhibition of PDK1 in human NCI-H1975 cells assessed as switch of pyruvate metabolism from lactate production to oxidative phosphorylation by measuring decrease in extracellular acidification rate at 20 uM pretreated for 4 hrs followed by oligomycin addition for 1 hr measured for 16 mins; type: cell-based
[30] = target: T1, [Pyruvate dehydrogenase (acetyl-transferring)] kinase isozyme 1, mitochondrial; assay: Inhibition of PDK1 in human NCI-H1975 cells assessed as switch of pyruvate metabolism from lactate production to oxidative phosphorylation by measuring increase in basal oxygen consumption rate at 20 uM incubated for 4 hrs measured for 16 mins; type: cell-based
[31] = target: T1, [Pyruvate dehydrogenase (acetyl-transferring)] kinase isozyme 1, mitochondrial; assay: Inhibition of PDK1 in human NCI-H1975 cells assessed as switch of pyruvate metabolism from lactate production to oxidative phosphorylation by measuring increase in basal oxygen consumption rate at 20 uM incubated for 4 hrs followed by FCCP addition for 1 hr measured for 16 mins; type: cell-based
[32] = target: T1, [Pyruvate dehydrogenase (acetyl-transferring)] kinase isozyme 1, mitochondrial; assay: Inhibition of PDK1 in human NCI-H1975 cells assessed as switch of pyruvate metabolism from lactate production to oxidative phosphorylation by measuring increase in basal oxygen consumption rate at 20 uM incubated for 4 hrs followed by antimycinA addition for 1 hr measured for 16 mins; type: cell-based
[33] = target: T1, [Pyruvate dehydrogenase (acetyl-transferring)] kinase isozyme 1, mitochondrial; assay: Inhibition of PDK1 in human NCI-H1975 cells assessed as switch of pyruvate metabolism from lactate production to oxidative phosphorylation by measuring increase in basal oxygen consumption rate at 20 uM incubated for 4 hrs followed by oligomycin addition for 1 hr measured for 16 mins; type: cell-based
[34] = target: T1, [Pyruvate dehydrogenase (acetyl-transferring)] kinase isozyme 1, mitochondrial; assay: Inhibition of PDK1 in human NCI-H1975 cells assessed as switch of pyruvate metabolism from lactate production to oxidative phosphorylation by measuring decrease in extracellular acidification rate at 20 uM pretreated for 4 hrs followed by glucose addition for 1 hr measured for 16 mins; type: cell-based
Sus scrofa [35] = species: Sus scrofa; assay: Inhibition of porcine PDK1 assessed as activation of pyruvate dehydrogenase complex at 80 uM measured after 3 mins relative to control
[36] = target: T1, [Pyruvate dehydrogenase (acetyl-transferring)] kinase isozyme 1, mitochondrial; assay: Inhibition of PDK1 in human NCI-H1975 cells assessed as reduction in pyruvate dehydrogenase phosphorylation at 10 uM after 24 hrs by Western blot analysis; type: cell-based

Row | inhibition (INH) [1] | inhibition (INH) [2] | Kd [5] | inhibition [6] | inhibition [7] | inhibition [8] | inhibition [10] | inhibition (INH) [12] | inhibition [13] | IC50 (NCI-H1975 [14]) | inhibition [16] | Structure (SMILES) | inhibition at 6 µM (A549 [3]) | inhibition at 2 µM (NCI-H1650 [4]) | inhibition at 12 µM (NCI-H1650 [9]) | inhibition at 2 µM (A549 [11]) | inhibition at 6 µM (NCI-H1975 [15]) | inhibition at 12 µM (A549 [18]) | inhibition at 12 µM (NCI-H1975 [19]) | inhibition at 6 µM (NCI-H1650 [21]) | inhibition at 2 µM (NCI-H1975 [22]) | other results
1 | Not Active | Not Active | 1290 nM | Active | Active | inactive | 66.6% | Not Active | Active | 1750 nM | Active | CCc1ccc(C(=O)C(Cl)Cl)cc1[N+](=O)[O-] | 71.4% | 35.6% | 100% | 20.2% | 93.2% | 93.7% | 98.9% | 79.3% | 57% | inhibition [17]: Active; inhibition [20]: Active
2 | Not Active | Not Active | 580 nM | Active | Active | inactive | 84.3% | Not Active | Active | 1260 nM | Active | CC(C)Oc1ccc(C(=O)C(Cl)Cl)cc1[N+](=O)[O-] | 92.5% | 48.6% | 99.5% | 27.7% | 99.1% | 99.7% | 99.5% | 95.9% | 65.5% | inhibition (Sus scrofa [23]): Active; inhibition [24]: Active; inhibition [25]: Active; inhibition [26]: Active; inhibition [27]: Active; inhibition [17]: Active; inhibition [20]: Active
3 | Not Active | Not Active | 970 nM | Active | Active | inactive | 75.1% | Not Active | Active | 1590 nM | Active | CC(C)c1ccc(C(=O)C(Cl)Cl)cc1[N+](=O)[O-] | 75.9% | 36.4% | 100% | 22.7% | 95% | 96.5% | 99.5% | 90% | 59.8% | inhibition [17]: Active; inhibition [20]: Active

Row | Structure (SMILES) | inhibition (INH) [1] | inhibition (INH) [2] | Kd [5] | inhibition [6] | inhibition [7] | inhibition [8] | inhibition [10] | inhibition (INH) [12] | inhibition [13] | IC50 (NCI-H1975 [14]) | inhibition [16] | inhibition at 6 µM (A549 [3]) | inhibition at 2 µM (NCI-H1650 [4]) | inhibition at 12 µM (NCI-H1650 [9]) | inhibition at 2 µM (A549 [11]) | inhibition at 6 µM (NCI-H1975 [15]) | inhibition at 12 µM (A549 [18]) | inhibition at 12 µM (NCI-H1975 [19]) | inhibition at 6 µM (NCI-H1650 [21]) | inhibition at 2 µM (NCI-H1975 [22]) | other results
4 | O=C(c1ccccc1)C(Cl)Cl | Active | Active | – | – | – | – | inactive | Active | – | 7900 nM | – | 28.5% | 15.3% | 47.9% | 9.2% | 54.3% | 54.4% | 83.7% | 31.3% | 13.2% | inhibition (Sus scrofa [23]): inactive; inhibition [28]: Active; inhibition [29]: inactive; inhibition [30]: Active; inhibition [31]: Active; inhibition [32]: inactive; inhibition [33]: Active; inhibition [34]: inactive; inhibition (Sus scrofa [35]): 36.6%; inhibition [36]: Active
